According to ChEMBL document CHEMBL1143572, “Virtual screening workflow development guided by the "receiver operating characteristic" curve approach. Application to high-throughput docking on metabotropic glutamate receptor subtype 4” (J Med Chem, 2005):

Molecular target: T1, Metabotropic glutamate receptor 4 (Rattus norvegicus, UniProt P31423)
Assay: Effective concentration against Metabotropic glutamate receptor 4

T1 sequence (P31423 whole entry): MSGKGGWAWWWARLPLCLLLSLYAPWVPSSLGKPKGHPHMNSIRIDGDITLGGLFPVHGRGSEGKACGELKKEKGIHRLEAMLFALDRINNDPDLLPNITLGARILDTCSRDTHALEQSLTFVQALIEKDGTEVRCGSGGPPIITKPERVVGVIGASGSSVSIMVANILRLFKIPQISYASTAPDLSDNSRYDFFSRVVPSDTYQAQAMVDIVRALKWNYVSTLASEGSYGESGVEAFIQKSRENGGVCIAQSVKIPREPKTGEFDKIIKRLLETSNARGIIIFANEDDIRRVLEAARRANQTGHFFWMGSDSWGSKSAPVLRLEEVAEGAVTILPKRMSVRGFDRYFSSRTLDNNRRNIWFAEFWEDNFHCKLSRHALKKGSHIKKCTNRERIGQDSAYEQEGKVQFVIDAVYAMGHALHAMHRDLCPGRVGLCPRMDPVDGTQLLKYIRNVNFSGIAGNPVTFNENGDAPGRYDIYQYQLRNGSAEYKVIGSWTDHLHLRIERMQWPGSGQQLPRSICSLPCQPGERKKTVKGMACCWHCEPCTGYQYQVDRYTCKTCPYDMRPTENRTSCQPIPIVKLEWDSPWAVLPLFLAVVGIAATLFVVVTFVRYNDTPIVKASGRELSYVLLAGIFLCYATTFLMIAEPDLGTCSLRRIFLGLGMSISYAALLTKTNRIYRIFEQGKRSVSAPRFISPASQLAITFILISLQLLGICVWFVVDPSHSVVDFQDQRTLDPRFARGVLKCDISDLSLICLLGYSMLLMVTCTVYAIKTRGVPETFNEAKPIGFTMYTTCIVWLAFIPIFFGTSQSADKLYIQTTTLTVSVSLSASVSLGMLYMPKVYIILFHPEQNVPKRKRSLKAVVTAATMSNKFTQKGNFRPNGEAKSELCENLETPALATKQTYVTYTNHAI

| Structure (SMILES) | EC50 |
| --- | --- |
| N[C@@H](CCP(=O)(O)O)C(=O)O | 0.2 µM |

Molecular target: T1, Metabotropic glutamate receptor 4
Assay: Stimulation od [3H]phosphatidylinositol accumulation by rat Metabotropic glutamate receptor 4 co-expressed with Gqi9 protein in HEK 293 cells
Format: functional, cell-based, HEK293

| Structure (SMILES) | EC50 |
| --- | --- |
| N[C@H](C(=O)O)C12CC(C(=O)O)(C1)C2 | > 1000 µM |

Molecular target: T1, Metabotropic glutamate receptor 4
Assay: Stimulation of [3H]phosphatidylinositol accumulation by rat Metabotropic glutamate receptor 4 co-expressed with Gqi9 protein in HEK 293 cells; Active
Format: functional, cell-based, HEK293

| Structure (SMILES) | EC50 |
| --- | --- |
| N[C@H](C(=O)O)c1ccc(P(=O)(O)O)cc1 | < 100 µM |
| N[C@H](C(=O)O)c1ccc(C(=O)O)c(C(=O)O)c1 | < 100 µM |
| N[C@@H](CCS(=O)(=O)O)C(=O)O | < 100 µM |
| N[C@@]1(C(=O)O)C[C@H](C(=O)O)[C@H](C(=O)O)C1 | < 100 µM |
| NC1(C(=O)O)C[C@H](C(=O)O)[C@@H](C(=O)O)C1 | < 100 µM |
| N[C@@H](CCP(=O)(O)O)C(=O)O | < 100 µM |
| NC1(C(=O)O)CC2CC1C2C(=O)O (centres undefined) | < 100 µM |
| N[C@H](C(=O)O)[C@@H]1C[C@H]1C(=O)O | < 100 µM |
| N[C@H](CCC(=O)O)C(=O)O [D-GLUTAMATE] | < 100 µM |
| N[C@@H](COP(=O)(O)O)C(=O)O [DEXFOSFOSERINE] | < 100 µM |

Molecular target: Metabotropic glutamate receptor 4 (Rattus norvegicus, UniProt P31423, D309A)
Sequence (P31423 whole entry, looked up, stated change not applied): as the sequence (P31423 whole entry) above
Assay: Effective concentration against D309A mutant Metabotropic glutamate receptor 4

| Structure (SMILES) | EC50 |
| --- | --- |
| N[C@@H](CCP(=O)(O)O)C(=O)O | 129 µM |

Molecular target: T1, Metabotropic glutamate receptor 4
Assay: Stimulation of [3H]phosphatidylinositol accumulation by rat Metabotropic glutamate receptor 4 co-expressed with Gqi9 protein in HEK 293 cells; Inactive
Format: functional, cell-based, HEK293

| Structure (SMILES) | EC50 |
| --- | --- |
| N[C@@H](CCn1oc(=O)[nH]c1=O)C(=O)O | > 100 µM |
| N[C@H](Cn1oc(=O)[nH]c1=O)C(=O)O | > 100 µM |
| N[C@@]1(C(=O)O)CC[C@H](C(=O)O)C1 | > 100 µM |
| N[C@@]1(C(=O)O)CC[C@@H](C(=O)O)C1 | > 100 µM |
| C=C(C[C@@H](N)C(=O)O)C(=O)O | > 100 µM |
| N[C@H](C(=O)O)c1cc(O)cc(O)c1 | > 100 µM |
| N[C@H](C(=O)O)c1ccc(C(=O)O)c(O)c1 | > 100 µM |
| N[C@@]1(C(=O)O)CN[C@@H](C(=O)O)C1 | > 100 µM |
| N[C@H](C(=O)O)C12CC(C(=O)O)(C1)C2 | > 100 µM |
| C[C@@H](C[C@@H](N)C(=O)O)C(=O)O | > 100 µM |
| N[C@@]1(C(=O)O)CC[C@H]2[C@H](C(=O)O)[C@H]21 [EGLUMETAD] | > 100 µM |
